Patent US12297165B2, “Oligothioetheramides (oligoteas) as anti-microbial and anti-bacterial agents” (Cornell University, priority 2017, dated 2025)

Experiments:
Format in all cases: cell-based
[1] = system: Pseudomonas aeruginosa (PA-14, PA-1); experiment: MIC assay, Pseudomonas aeruginosa strains; conditions: Pseudomonas aeruginosa PA-14 and PA-1
Excerpt: PA-14 is a highly virulent Pseudomonas aeruginosa strain (Gram-negative) that is difficult to treat. PA-1 is a meropenem resistant clinical isolate of Pseudomonas aeruginosa that was obtained from a patient. Meropenem, vancomycin and polymyxin B are commercial antibiotics that are used as controls.

[2] = system: Bacillus subtilis; experiment: Minimum inhibitory concentration (MIC) assay, B. subtilis
Protocol: (§1) Biological Assays: Minimum inhibitory concentration (MIC) assay: A single bacterial colony (Bacillus subtilis (B. subtilis) or methicillin-resistant Staphylococcus aureus (MRSA)) was selected and incubated in media (Luria Broth (LB) for B. subtilis or Tryptic Soy Broth (TSB) for MRSA) at 37° C. overnight. This was sub-cultured in media and incubated at 37° C. until the OD600 was approximately 0.5 (2.5-3.5-hour incubation). The subculture was diluted with media to an OD600 of 0.001. Diluted subculture and 1 mM stocks of compounds to be tested were added to a clear 96-well plate, and serially diluted by a factor of 0.5. The well plate was incubated overnight and the absorbance was measured at 600 nm using the TECAN. To determine the MIC in presence of serum, assays were repeated using media with 20% heat-inactivated mouse serum or 20% fetal bovine serum. […] The MIC50 was calculated using a 4PL sigmoidal nonlinear regression on Prism. The MIC100 was calculated as the first point below 10% of the maximum.
The MIC of PEG24-LL-PDT4G against B. subtilis was compared with the MIC of unmodified PDT-4G. Both compounds were pre-incubated with B. subtilis supernatant for 0, 4, or 24 hours before the MIC assay to test cleavage kinetics (FIG. 53).

[3] = system: E. coli; experiment: Minimum inhibitory concentration (MIC) assay, E. coli
[4] = system: methicillin resistant Staphylococcus aureus (MRSA) (ATCC 33591); experiment: Minimum inhibitory concentration (MIC) assay, MRSA
Protocol: as §1

[5] = system: community associated Staphylococcus aureus (strain USA300); experiment: Minimum inhibitory concentration (MIC) assay, S. aureus USA300
Protocol: as §1

[6] = system: bacterial membrane; experiment: Cytoplasmic permeability assay with propidium iodide, fluorescence microscopy; conditions: incubated with PI
Protocol: Membrane permeabilization propidium iodide (PI) assay: 1 mM BDT-4G stock solutions were prepared in DMSO. B. subtilis strains were streaked onto a Luria Broth (LB) agar plate and incubated overnight. One colony was selected and incubated in LB overnight, then subcultured and incubated until the OD600 measured between 0.5 and 0.6. Bacteria were harvested, washed, and resuspended in a solution of 5 mM HEPES, 5 mM glucose, and 10 μM propidium iodide. 150 μL bacteria solution was added to each well of a black 96 well plate. Fluorescence measurements were taken at 535 nm excitation, 617 nm emission on a TECAN Infinite M1000 PRO Microplate reader (Männdorf) (TECAN) for 2 minutes. BDT-4G stock solution was added for a concentration of 15 μg/mL, and fluorescence measurements were taken for an additional 20 minutes.
Membrane permeabilization dictates lytic potential. A cytoplasmic permeability assay was performed using propidium iodide (PI). PI is a cell impermeant intercalating agent that fluoresces when bound to nucleic acids. As such, PI can be used to identify cells with compromised membranes by measuring an increase in fluorescence above the baseline. This phenomenon was qualitatively confirmed by performing fluorescence microscopy studies incubated with PI with or without the AOTs. […]

[7] = system: cell membrane of methicillin resistant Staphylococcus aureus (MRSA); experiment: Membrane permeabilization propidium iodide (PI) assay, MRSA
[8] = presence of elevated calcium and magnesium ions (25 mM)
[9] = normal (Tryptic Soy media) media
[10] = presence of elevated calcium and magnesium ions (25 mM) and presence of heat-inactivated fetal bovine serum

## C=CCN(CCNC(=N)N)C(=O)CCSCCCSCCCN(CCNC(=N)N)C(=O)CCSCc1cccc(CSCCCN(CCNC(=N)N)C(=O)CCSCCCSCCCN)c1 [3GMG3G]
[1]
  activity relative to the para substituted compound (3GPG3G): 2-4 fold

## C=CCN(CCNC(=N)N)C(=O)CCSCCCCSCCCN(CCNC(=N)N)C(=O)CCSCCCCSCCCN(CCNC(=N)N)C(=O)CCSCCCCSCCCN(CCNC(=N)N)C(=O)CCSCCCCSCCCN(CCNC(=N)N)C(=O)CCSCCCCSCCCN [BDT-5G]
[2]; normal (LB media) media
  antibacterial activity (MIC100) against Bacillus subtilis: show activity
[2]; [8]
  antibacterial activity (MIC100) against Bacillus subtilis: maintain their antibacterial activity
[3]; normal (LB media) media
  antibacterial activity (MIC100) against E. coli: show activity
[3]; [8]
  antibacterial activity (MIC100) against E. coli: maintain their antibacterial activity
[4]; [9]
  antibacterial activity (MIC100) against MRSA: show activity
[4]; [10]
  antibacterial activity (MIC100) against MRSA: maintain their antibacterial activity
[5]; [9]
  antibacterial activity (MIC100) against Staphylococcus aureus strain USA300: show activity
[5]; [10]
  antibacterial activity (MIC100) against Staphylococcus aureus strain USA300: maintain their antibacterial activity

## CN[C@H](CC(C)C)C(=O)N[C@H]1C(=O)N[C@@H](CC(N)=O)C(=O)N[C@H]2C(=O)N[C@H]3C(=O)N[C@H](C(=O)N[C@H](C(=O)O)c4cc(O)cc(O)c4-c4cc3ccc4O)[C@H](O)c3ccc(c(Cl)c3)Oc3cc2cc(c3O[C@@H]2O[C@H](CO)[C@@H](O)[C@H](O)[C@H]2O[C@H]2C[C@](C)(N)[C@H](O)[C@H](C)O2)Oc2ccc(cc2Cl)[C@H]1O [Vancomycin]
[6]
  propidium iodide entry into cells (staining): PI was unable to gain entry into cells
[7]
  membrane destabilization (diffusion of propidium iodide dye into the cell): no membrane compromise

## CCCCCCCCCC(=O)N[C@@H](Cc1c[nH]c2ccccc12)C(=O)N[C@H](CC(N)=O)C(=O)N[C@@H](CC(=O)O)C(=O)N[C@@H]1C(=O)NCC(=O)N[C@@H](CCCN)C(=O)N[C@@H](CC(=O)O)C(=O)N[C@H](C)C(=O)N[C@@H](CC(=O)O)C(=O)NCC(=O)N[C@H](CO)C(=O)N[C@@H]([C@H](C)CC(=O)O)C(=O)N[C@@H](CC(=O)c2ccccc2N)C(=O)O[C@@H]1C [daptomycin]
[7]
  membrane destabilization (diffusion of propidium iodide dye into the cell): no membrane compromise
